{
  "source": "paper PMC6908673",
  "about": "“Tuning the in vitro sensing and signaling properties of cyanobacterial PII protein by mutation of key residues” (Scientific Reports, 2019)",
  "key": {"SeNAGK + SePII": {"biological_target": "T1, SeNAGK + SePII (Synechococcus elongatus, UniProt Q6V1L5)", "T1 construct": "gene argB; His6-tagged SeNAGK hexamer mixed with Strep-tagged SePII; two PII trimers sandwich one NAGK hexamer (WT); both from E. coli; with Nitrogen regulatory protein P-II", "T1 sequence (P0A3F4 whole entry partner, one chain of several)": "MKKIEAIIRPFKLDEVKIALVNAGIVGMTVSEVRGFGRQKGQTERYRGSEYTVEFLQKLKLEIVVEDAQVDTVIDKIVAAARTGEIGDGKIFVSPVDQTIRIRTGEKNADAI", "assay": "coupled NAGK assay (pyruvate kinase/lactate dehydrogenase, NADH oxidation)", "type": "biochemical", "conditions": "25 µM arginine; 2-OG acts on PII site"}, "PII-PipX complex": {"biological_target": "T2, PII-PipX complex (Synechococcus elongatus, UniProt P0A3F4)", "T2 construct": "gene glnB; Strep-tagged PII trimer pre-incubated with His6-tagged PipX; three PipX per PII trimer; both from E. coli", "T2 sequence (P0A3F4 whole entry)": "as the sequence (P0A3F4 whole entry partner, one chain of several) above", "T2 sequence (Q7X386 1-89 partner)": "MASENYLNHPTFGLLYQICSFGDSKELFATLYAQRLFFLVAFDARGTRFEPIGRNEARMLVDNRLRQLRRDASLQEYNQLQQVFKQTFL", "assay": "indirect SPR, His6-PipX on Ni-NTA chip", "type": "binding", "conditions": "10 mM Hepes pH 7.5, 150 mM NaCl, 1 mM MgCl2, 25 °C"}, "SeNAGK": {"biological_target": "T3, SeNAGK (Synechococcus elongatus, UniProt Q6V1L5)", "T3 construct": "gene argB; His6-tagged, E. coli BL21(DE3), His-Trap; hexamer, about 194 kDa", "T3 sequence (Q6V1L5 1-301)": "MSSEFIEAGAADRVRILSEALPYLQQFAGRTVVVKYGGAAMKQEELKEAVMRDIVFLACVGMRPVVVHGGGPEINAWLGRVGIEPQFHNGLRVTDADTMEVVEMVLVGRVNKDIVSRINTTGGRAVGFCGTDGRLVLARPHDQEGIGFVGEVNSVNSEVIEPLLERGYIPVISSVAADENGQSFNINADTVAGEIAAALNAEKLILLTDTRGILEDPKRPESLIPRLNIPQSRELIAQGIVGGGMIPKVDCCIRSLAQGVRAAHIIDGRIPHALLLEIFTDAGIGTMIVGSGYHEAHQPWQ", "assay": "coupled NAGK assay (pyruvate kinase/lactate dehydrogenase, NADH oxidation)", "type": "biochemical", "from_the_text": "coupled NAGK assay (pyruvate kinase/lactate dehydrogenase, NADH oxidation) on SeNAGK | Arginine feedback inhibition of non-complexed SeNAGK occurred with a half maximal inhibitory concentration (IC50) of […]"}, "[1]": {"substrate": "CC(=O)N[C@@H](CCC(=O)O)C(=O)O", "assay": "coupled NAGK assay (pyruvate kinase/lactate dehydrogenase, NADH oxidation)", "type": "biochemical, Synechococcus elongatus", "conditions": "without PII; without arginine", "from_the_text": "coupled NAGK assay (pyruvate kinase/lactate dehydrogenase, NADH oxidation) on SeNAGK"}, "[2]": {"substrate": "CC(=O)N[C@@H](CCC(=O)O)C(=O)O", "assay": "coupled NAGK assay (pyruvate kinase/lactate dehydrogenase, NADH oxidation)", "type": "biochemical, Synechococcus elongatus", "conditions": "with SePII (WT); without arginine", "from_the_text": "coupled NAGK assay (pyruvate kinase/lactate dehydrogenase, NADH oxidation) on SeNAGK + SePII"}, "[3]": {"biological_target": "the molecule itself", "assay": "SEC-MALS; PII mixed with NAGK (molar ratio 3:1 PII trimers to NAGK hexamers) 10 min at room temperature; Superose 6 Increase 10/300 GL; 100 mM Tris-HCl pH 7.8, 300 mM NaCl, 2 mM MgCl2, 2% glycerol; eluted fractions checked by SDS-PAGE"}},
  "data": [
    {"molecule": "O=C(O)CCC(=O)C(=O)O", "note": "[2-OG]", "values": [
      {"measurement": "coupled NAGK assay (pyruvate kinase/lactate dehydrogenase, NADH oxidation)", "setting": "SeNAGK + SePII", "value": "complex of SeNAGK-SePII (WT) showed the typical inhibitory effect upon 2-OG addition"},
      {"measurement": "indirect SPR, His6-PipX on Ni-NTA chip", "setting": "PII-PipX complex; 1 mM 2-OG with 1 mM ATP", "value": "2-OG in presence of ATP impaired PipX-PII (WT) complex formation"}
    ]},
    {"molecule": "Nc1ncnc2c1ncn2[C@@H]1O[C@H](COP(=O)(O)OP(=O)(O)O)[C@@H](O)[C@H]1O", "note": "[ADP]", "values": [
      {"measurement": "indirect SPR, His6-PipX on Ni-NTA chip", "setting": "PII-PipX complex; 1 mM ADP", "value": "strong positive effect of ADP on the interaction of PII (WT) with PipX"}
    ]},
    {"molecule": "N=C(N)NCCC[C@H](N)C(=O)O", "note": "[arginine]", "values": [
      {"measurement": "IC50", "setting": "SeNAGK", "value": 11, "unit": "µM"}
    ]},
    {"molecule": "SeNAGK (Synechococcus elongatus PCC 7942 = FACHB-805) (protein, His6-tagged, E. coli BL21(DE3), His-Trap; hexamer, about 194 kDa) MSSEFIEAGAADRVRILSEALPYLQQFAGRTVVVKYGGAAMKQEELKEAVMRDIVFLACVGMRPVVVHGGGPEINAWLGRVGIEPQFHNGLRVTDADTMEVVEMVLVGRVNKDIVSRINTTGGRAVGFCGTDGRLVLARPHDQEGIGFVGEVNSVNSEVIEPLLERGYIPVISSVAADENGQSFNINADTVAGEIAAALNAEKLILLTDTRGILEDPKRPESLIPRLNIPQSRELIAQGIVGGGMIPKVDCCIRSLAQGVRAAHIIDGRIPHALLLEIFTDAGIGTMIVGSGYHEAHQPWQ", "values": [
      {"measurement": "Km", "setting": "[1]", "value": "5.1 ± 0.9", "unit": "mM"}
    ]},
    {"molecule": "SeNAGK + SePII (Synechococcus elongatus PCC 7942 = FACHB-805) (protein, His6-tagged SeNAGK hexamer mixed with Strep-tagged SePII; two PII trimers sandwich one NAGK hexamer (WT); both from E. coli; with Nitrogen regulatory protein P-II) MSSEFIEAGAADRVRILSEALPYLQQFAGRTVVVKYGGAAMKQEELKEAVMRDIVFLACVGMRPVVVHGGGPEINAWLGRVGIEPQFHNGLRVTDADTMEVVEMVLVGRVNKDIVSRINTTGGRAVGFCGTDGRLVLARPHDQEGIGFVGEVNSVNSEVIEPLLERGYIPVISSVAADENGQSFNINADTVAGEIAAALNAEKLILLTDTRGILEDPKRPESLIPRLNIPQSRELIAQGIVGGGMIPKVDCCIRSLAQGVRAAHIIDGRIPHALLLEIFTDAGIGTMIVGSGYHEAHQPWQ", "values": [
      {"measurement": "Km", "setting": "[2]", "value": "2.9 ± 0.6", "unit": "mM"}
    ]},
    {"molecule": "SeNAGK, N-acetyl-L-glutamate kinase from S. elongatus PCC7942, His6-tagged (enzyme, N-acetyl-L-glutamate kinase (NAGK) of Synechococcus elongatus PCC 7942; hexamer; also called His6-NAGK) MSSEFIEAGAADRVRILSEALPYLQQFAGRTVVVKYGGAAMKQEELKEAVMRDIVFLACVGMRPVVVHGGGPEINAWLGRVGIEPQFHNGLRVTDADTMEVVEMVLVGRVNKDIVSRINTTGGRAVGFCGTDGRLVLARPHDQEGIGFVGEVNSVNSEVIEPLLERGYIPVISSVAADENGQSFNINADTVAGEIAAALNAEKLILLTDTRGILEDPKRPESLIPRLNIPQSRELIAQGIVGGGMIPKVDCCIRSLAQGVRAAHIIDGRIPHALLLEIFTDAGIGTMIVGSGYHEAHQPWQ", "values": [
      {"measurement": "stoichiometry N", "setting": "[3]", "value": 6}
    ]}
  ]
}
